Results: patent US9822414B2, “In vitro method for predicting in vivo genotoxicity of chemical compounds” (priority 2011, dated 2017)
Where “and” joins values, the source holds several entries; their conditions need not be identical. Equal entries are not always repeated. Entries after “also recorded” stand apart in the source; their conditions may differ. Where two headings read alike, the source gives them in different places.

Experiments:
NR0B2 = experiment: Gene expression of NR0B2 in HepG2 cells exposed to compound (microarray, log2 treatment:control ratio); format: cell-based, human
HepG2 cell [1] = test system: HepG2 cell
PWWP2B = experiment: Gene expression of PWWP2B in HepG2 cells exposed to compound (microarray, log2 treatment:control ratio); format: cell-based, human
LOC100505880 = experiment: Gene expression of LOC100131914/LOC100505880 in HepG2 cells exposed to compound (microarray, log2 treatment:control ratio); format: cell-based, human
[2] = test system: conventional in vitro genotoxicity assays; conditions: cited from earlier work
HepG2 cell [3] = experiment: Class prediction of in vivo genotoxicity by the method of the invention (Ames stratification plus three-gene expression in HepG2); conditions: for Prediction (class prediction results using the method of the invention): 62 compounds, three replicates, HepG2 24 h
rodents = conditions: cited from earlier work
Salmonella typhimurium = conditions: cited from earlier work
[4] = positive when at least one in vivo assay (MN, CA) positive, equivocal considered positive
[5] = HepG2, Ames positive compounds, per replicate, reference value −0.099
[6] = HepG2 cells, 24 h exposure, Ames positive compounds, one line per replicate of triplicate experiments
[7] = HepG2 cells, 24 h exposure, Ames positive compounds, one line per replicate of triplicate experiments, listed as Fu
[8] = HepG2, Ames positive compounds, per replicate, reference value −0.071

SMILES	NR0B2 above or below the reference value (NR0B2)	At least ⅔ genes +? (HepG2 cell [1])	Average result over three measurements (HepG2 cell [1])	Log2 treatment: control ratio PWWP2B (PWWP2B)	LOC100505880 above or below the reference value (LOC100505880)	In vitro GTX [2]	Prediction (class prediction results using the method of the invention) (HepG2 cell [3])	Standard (in vivo genotoxicity designation) (rodents; in vivo)	Ames (Salmonella typhimurium)	In vivo GTX (rodents; [4])	further results
ClCc1ccccn1 [2CMP]	− (minus sign indicates a value below the reference value)	NGTX	NGTX	−0.214 and −0.23 and −0.031	− (minus sign indicates a value below the reference value)	+	NGTX	NGTX	+		
COc1cc2c(c3oc(=O)c4c(c13)CCC4=O)[C@@H]1C=CO[C@@H]1O2 [AFB1]	+ (Plus sign indicates a value above the reference value)	GTX	GTX	0.098 and 0.275 and 0.088	+ (Plus sign indicates a value above the reference value)	+	GTX	GTX	+	+	PWWP2B above or below the reference value (PWWP2B): + (Plus sign indicates a value above the reference value)
COc1ccc(N)cc1 [Anis]	+ (Plus sign indicates a value above the reference value)	GTX	GTX	0.013 and 0.076 and 0.253	+ (Plus sign indicates a value above the reference value)	+	GTX	NGTX	+		PWWP2B above or below the reference value (PWWP2B): + (Plus sign indicates a value above the reference value); Results in the conventional in vitro genotoxicity assays ([2]; see Table 5): positive results; Classification of NGTX compounds by the method of the invention (false positives) (HepG2 cell [3]; in vivo NGTX compounds): misclassification
Cc1c2ccccc2c(C)c2c1ccc1ccccc12 [DMBA]			GTX	−0.155 and 0.088 and −0.102		+	GTX+	GTX	+	+	Log2 treatment: control ratio NR0B2 (NR0B2): 0.064 and −0.116 and −0.076; Log2 treatment: control ratio LOC100505880 (LOC100505880): 0.08 and −0.059 and −0.025
O=c1[nH]cc(F)c(=O)[nH]1 [FU]			NGTX			+		GTX			NR0B2 above or below the reference value (NR0B2; [5]): + (Plus sign indicates a value above the reference value); also recorded: − (minus sign indicates a value below the reference value); NR0B2 above or below the reference value (NR0B2; HepG2, Ames positive compounds, per replicate, reference value −0.099, listed as Fu): − (minus sign indicates a value below the reference value); Log2 treatment: control ratio NR0B2 (NR0B2; [6]): 0.781 and −0.197; Log2 treatment: control ratio NR0B2 (NR0B2; [7]): −0.457; Prediction (class prediction results using the method of the invention) (HepG2 cell [1]): NGTX+; PWWP2B above or below the reference value (PWWP2B; [8]): + (Plus sign indicates a value above the reference value); Log2 treatment: control ratio PWWP2B (PWWP2B; [6]): 0.256 and 0.175; Log2 treatment: control ratio PWWP2B (PWWP2B; [7]): 0.008; LOC100505880 above or below the reference value (LOC100505880; HepG2, Ames positive compounds, per replicate, reference value −0.054): + (Plus sign indicates a value above the reference value); also recorded: − (minus sign indicates a value below the reference value); LOC100505880 above or below the reference value (LOC100505880; HepG2, Ames positive compounds, per replicate, reference value −0.054, listed as Fu): − (minus sign indicates a value below the reference value); Log2 treatment: control ratio LOC100505880 (LOC100505880; [6]): 0.583 and −0.067; Log2 treatment: control ratio LOC100505880 (LOC100505880; [7]): −0.218; In vivo GTX (rodents; in vivo): +; Ames (Salmonella typhimurium; Ames results based on NTP data): +
O=c1c(O)c(-c2ccc(O)c(O)c2)oc2cc(O)cc(O)c12 [Que]		NGTX	NGTX			+		NGTX			NR0B2 above or below the reference value (NR0B2; [5]): − (minus sign indicates a value below the reference value); Log2 treatment: control ratio NR0B2 (NR0B2; [6]): −0.635 and −0.69 and −3.709; Prediction (class prediction results using the method of the invention) (HepG2 cell [1]): NGTX; PWWP2B above or below the reference value (PWWP2B; [8]): − (minus sign indicates a value below the reference value); Log2 treatment: control ratio PWWP2B (PWWP2B; [6]): −0.206 and −0.437 and −0.113; Log2 treatment: control ratio LOC100505880 (LOC100505880; [6]): 0.062 and −0.337 and −0.727; In vivo GTX (rodents; in vivo): −; Ames (Salmonella typhimurium; Ames results based on NTP data): +
[NH2][Pt]([NH2])([Cl])[Cl] [cisPt]	+ (Plus sign indicates a value above the reference value)	GTX	GTX	0.095 and −0.147 and −0.18	+ (Plus sign indicates a value above the reference value)	+	GTX	GTX	+	+	
